From article PMC7560456, “Synthesis, Selected Transformations, and Biological Activity of Alkoxy Analogues of Lepidilines A and C” (Materials, 2020)
Entries after “also recorded” stand apart in the source; their conditions may differ. Where a name gives a salt, the structure may show the parent alone.

Tests used:
[1] = system: HL-60 cells; assay: MTT in vitro cytotoxicity assay, HL-60; type: cell-based; conditions: concentration required to inhibit metabolic activity by 50%, mean ± SEM
Protocol: (§1) The promyelocytic leukemia HL-60 and breast cancer adenocarcinoma MCF-7 cell lines were purchased from the European Collection of Cell Cultures (ECACC). […] MCF-7 cells were maintained in Minimum Essential Medium Eagle (Sigma Aldrich, St. Louis, MO, USA) supplemented with 2 mM glutamine and MEM nonessential amino-acid solution (Sigma Aldrich, St. Louis, MO, USA). Both media were supplemented with 10% heat-inactivated fetal bovine serum (Biological Industries, Beit-Haemek, Israel) and antibiotics (100 U/mL penicillin and 100 μg/mL streptomycin) (Sigma-Aldrich, St. Louis, MO, USA). Human umbilical vein endothelial cells (HUVECs) and human mammary gland/breast cell line MCF-10A were purchased from the American Type Culture Collection (ATCC). HUVECs were cultured using the EGM-2 Endothelial Medium BulletKit, whereas MCF-10A was cultured using the MEGM Mammary Epithelial BulletKit, both purchased from Lonza (Lonza, Walkersville, MD, USA).
(§2) The MTT (3-(4, 5-dimethylthiazol-2-yl)-2, 5-diphenyltetrazolium bromide) assay was performed according to the known procedure. Cells were seeded into 24-well plates at a density of 8 × 10^4/mL and left to grow for 24 h. After being cultured for 48 h with various concentrations of the tested compounds, cells were incubated with MTT solution (5 mg/mL in phosphate-buffered saline) for 2 h. Then, the plates were centrifuged and the supernatant was discarded. Dimethyl sulfoxide (DMSO; 1 mL) was added to each well to dissolve the blue formazan product, whose absorbance was measured at 560 nm using a FlexStation 3 Multi-Mode Microplate Reader (Molecular Devices, LLC, CA, USA). The untreated cells were used as control. The data were expressed as mean ± SEM of three independent experiments.

[2] = system: MCF-7 cells; assay: MTT in vitro cytotoxicity assay, MCF-7; type: cell-based; conditions: concentration required to inhibit metabolic activity by 50%, mean ± SEM
Protocol: as §1, §2

[3] = system: HUVECs; assay: MTT in vitro cytotoxicity assay, HUVEC (normal cells); type: cell-based, human; conditions: 48 h, mean ± SEM
Protocol: as §1, §2

[4] = system: MCF-10A cells; assay: MTT in vitro cytotoxicity assay, MCF-10A (normal cells); type: cell-based, human; conditions: 48 h, mean ± SEM
Protocol: as §1, §2

[5] = system: FDIGROV cell line; parameters: method as in PMID 12932133; conditions: ovarian carcinoma; cited from earlier work
[6] = system: UMUC3 cell line; parameters: method as in PMID 12932133; conditions: bladder carcinoma; cited from earlier work
[7] = system: PACA2 cell line; parameters: method as in PMID 12932133; conditions: pancreatic adenocarcinoma; cited from earlier work
[8] = system: MDA231 cell line; parameters: method as in PMID 12932133; conditions: breast carcinoma; cited from earlier work

With `[Br-].c1ccc(CO[n+]2cn(Cc3ccccc3)c(-c3ccccc3)c2-c2ccccc2)cc1` [4b, 1-Benzyl-3-benzyloxy-4,5-diphenylimidazolium bromide] the IC50 ([1]; 48 h) was 700 ± 30 nM, the IC50 ([2]; 48 h) was 1530 ± 90 nM and the IC50 ([3]; Homo sapiens, HUVEC) was 970 ± 30 nM. For the same compound, the IC50 ([4]; Homo sapiens, MCF-10A) was 570 ± 10 nM and the melting point was 167 to 169 °C.
Work on `Cc1ccccc1COn1c[n+](OCc2ccccc2C)c(C)c1C.[Br-]` [5b, 1,3-Di-(2-methylbenzyloxy)-4,5-dimethylimidazolium bromide] yielded an IC50 ([1]; Homo sapiens, HL-60, 48 h) of 1540 ± 10 nM, an IC50 ([2]; Homo sapiens, MCF7, 48 h) of 8300 ± 10 nM and a melting point of 132 to 133 °C.
`c1ccc(CO[n+]2cn(Cc3ccccc3)c(-c3ccccc3)c2-c2ccccc2)cc1` (as salt: phosphate) [6a, 1-Benzyl-3-benzyloxy-4,5-diphenylimidazolium hexafluorophosphate] gave a melting point of 163 to 166 °C.
Work on `Cc1cc(C)cc(CO[n+]2cn(OC34CC5CC(CC(C5)C3)C4)c(C)c2C)c1` (as salt: phosphate) (hydrate or solvate) [6b, 1-Adamantyloxy-3-(3,5-dimethylbenzyloxy)-4,5-dimethylimidazolium hexafluorophosphate] yielded a melting point of 150 to 152 °C.
Work on `Cc1ccccc1CO[n+]1cn(OCc2ccccc2)c(C)c1C` [5e, 1-Benzyloxy-3-(2-methylbenzyloxy)-4,5-dimethylimidazolium bromide] yielded an IC50 ([1]; Homo sapiens, HL-60, 48 h) of 3160 ± 180 nM and an IC50 ([2]; Homo sapiens, MCF7, 48 h) of 11600 ± 250 nM.
Compound `Cc1cc(C)cc(COn2c[n+](OCc3cc(C)cc(C)c3)c(C)c2C)c1.[Br-]` [5d, 1,3-Di-(3,5-dimethylbenzyloxy)-4,5-dimethylimidazolium bromide] has an IC50 ([1]; Homo sapiens, HL-60, 48 h) of 1460 ± 20 nM, an IC50 ([2]; Homo sapiens, MCF7, 48 h) of 8570 ± 370 nM and a melting point of 141 to 143 °C.
Compound `Cc1cc(C)cc(CO[n+]2cn(OC34CC5CC(CC(C5)C3)C4)c(C)c2C)c1` [6b, 1-Adamantyloxy-3-(3,5-dimethylbenzyloxy)-4,5-dimethylimidazolium hexafluorophosphate] has an IC50 ([1]; Homo sapiens, HL-60, 48 h) of 370 ± 10 nM and an IC50 ([2]; Homo sapiens, MCF7, 48 h) of 2520 ± 30 nM.
Compound `Cc1ccc(COn2c[n+](OCc3ccc(C)cc3)c(C)c2C)cc1.[Br-]` [5c, 1,3-Di-(4-methylbenzyloxy)-4,5-dimethylimidazolium bromide] has an IC50 ([1]; Homo sapiens, HL-60, 48 h) of 4880 ± 180 nM, an IC50 ([2]; Homo sapiens, MCF7, 48 h) of 24200 ± 460 nM and a melting point of 111 to 113 °C.
For `Cc1ccc(COn2c[n+]([O-])c(C)c2C)cc1` [3e, 1-(4-Methylbenzyloxy)-4,5-dimethyl-1H-imidazole 3-oxide], the melting point was 101 to 102 °C.
For `Cc1ccccc1COn1c[n+]([O-])c(C)c1C` [3d, 1-(2-Methylbenzyloxy)-4,5-dimethyl-1H-imidazole 3-oxide], the melting point was 89 to 91 °C.
For `Cc1c(C)[n+](Cc2ccccc2)c(C)n1Cc1ccccc1` [lepidiline B], the “activity against FDIGROV cell line” value [5] is given as “some activity; also recorded: highly cytotoxic”, the “activity against UMUC3 cell line” value [6] is given as “promising activity; also recorded: highly cytotoxic” and the “activity against PACA2 cell line” value [7] is given as “promising activity; also recorded: highly cytotoxic”. The “activity against MDA231 cell line” value [8] was “promising activity; also recorded: highly cytotoxic”.
`Cc1c(C)[n+](OCc2ccccc2)cn1OCc1ccccc1.[Br-]` [5a, 1,3-Dibenzyloxy-4,5-dimethylimidazolium bromide] showed a melting point of 110 to 111 °C.
In the case of `[Br-].c1ccc(CO[n+]2c(C34CC5CC(CC(C5)C3)C4)[nH]c(-c3ccccc3)c2-c2ccccc2)cc1` [4d, 1-Adamantyl-3-benzyloxy-4,5-diphenylimidazolium bromide], the melting point is reported as 180 to 182 °C.
Work on `Cc1c(C)[n+]([O-])cn1OCc1ccccc1` [3c, 1-Benzyloxy-4,5-dimethyl-1H-imidazole 3-oxide] yielded a melting point of 103 to 105 °C.
`Cc1ccc(CO[n+]2cn(OCc3ccccc3)c(C)c2C)cc1.[Br-]` [5f, 1-Benzyloxy-3-(4-methylbenzyloxy)-4,5-dimethylimidazolium bromide] showed an IC50 ([1]; Homo sapiens, HL-60, 48 h) of 2910 ± 80 nM, an IC50 ([2]; Homo sapiens, MCF7, 48 h) of 16600 ± 1060 nM and a melting point of 124 to 126 °C.
For `Cc1c(C)[n+](Cc2ccccc2)cn1Cc1ccccc1` [lepidiline A], the “activity against FDIGROV cell line” value [5] is given as “some activity”.
Work on “1-Adamantyloxy-3-(4-methylbenzyloxy)-4,5-dimethylimidazolium bromide [5j]” yielded an IC50 ([1]; 48 h) of 390 ± 10 nM, an IC50 ([2]; 48 h) of 2630 ± 30 nM and an IC50 [3] of 1940 ± 10 nM. For the same compound, the IC50 [4] was 1690 ± 40 nM.
In the case of “1-Adamantyloxy-3-benzyloxy-4,5-dimethylimidazolium bromide [5h]”, the IC50 ([1]; 48 h) is reported as 880 ± 80 nM, the IC50 ([2]; 48 h) is reported as 6760 ± 80 nM and the IC50 [3] is reported as 3700 ± 230 nM. The IC50 [4] was 6400 ± 30 nM.
For “1-Adamantyloxy-3-(2-methylbenzyloxy)-4,5-dimethylimidazolium bromide [5i]”, the IC50 ([1]; 48 h) was 670 ± 10 nM, the IC50 ([2]; 48 h) was 5950 ± 350 nM and the IC50 [3] was 3960 ± 80 nM.
`c1ccc(CO[n+]2cn(Cc3ccccc3)c(-c3ccccc3)c2-c2ccccc2)cc1` [6a, 1-Benzyl-3-benzyloxy-4,5-diphenylimidazolium hexafluorophosphate] showed an IC50 ([1]; Homo sapiens, HL-60, 48 h) of 640 ± 20 nM and an IC50 ([2]; Homo sapiens, MCF7, 48 h) of 1290 ± 10 nM.
For `Cc1[nH]c(C23CC4CC(CC(C4)C2)C3)[n+](OCc2ccccc2)c1C.[Br-]` [4c, 1-Adamantyl-3-benzyloxy-4,5-dimethylimidazolium bromide], the melting point was 196 to 197 °C.
Compound `Cc1cc(C)cc(COn2c[n+]([O-])c(C)c2C)c1` [3f, 1-(3,5-Dimethylbenzyloxy)-4,5-dimethyl-1H-imidazole 3-oxide] has a melting point of 96 to 98 °C.
`Cc1c(C)n(OCc2ccccc2)c(=S)n1Cc1ccccc1` [7a, 1-Benzyl-3-benzyloxy-4,5-dimethylimidazole-2-thione] gave a melting point of 116 to 117 °C.
`Cc1c(C)n(OCc2ccccc2)c(=S)n1OCc1ccccc1` [7c, 1,3-Dibenzyloxy-4,5-dimethylimidazole-2-thione] showed a melting point of 87 to 88 °C.
For `Cc1c(C)[n+](OCc2ccccc2)cn1Cc1ccccc1.[Br-]` [4a, 1-Benzyl-3-benzyloxy-4,5-dimethylimidazolium bromide], the melting point was 148 to 150 °C.
With “1-Adamantyloxy-3-(3,5-dimethylbenzyloxy)-4,5-dimethylimidazolium bromide [5k]” the IC50 ([1]; 48 h) was 360 ± 10 nM, the IC50 ([2]; 48 h) was 2400 ± 60 nM and the IC50 [3] was 1820 ± 80 nM. It also gave an IC50 [4] of 1360 ± 10 nM.
